The values that follow are results of earlier work, collected in PMC10882020 (Heliyon, 2024).

The test system of one series is ACE. The following applies: read-out: ACE inhibitory activity IC50; ref 11 (Zheng et al.).
For series [1] the following is noted: orally administered at a dose of 100–150 mg/kg; ref 11 (Zheng et al.).

In general, IC50 refers to the concentration that gives 50% inhibition. With RGQVIYVL, the IC50 with ACE was 38.2 µM. For the same sequence, the antihypertensive effects result in series [1] is on record as “significant antihypertensive effects”.
